{
  "source": "patent US12285420B2",
  "about": "(ACASTI PHARMA U.S., INC., priority 2018, dated 2025)",
  "origin": "cited, not measured here",
  "key": {"[1]": {"settings": "nimodipine-treated subarachnoid hemorrhage (SAH) patients"}, "[2]": {"settings": "man, oral administration"}},
  "data": [
    {"smiles": "COCCOC(=O)C1=C(C)NC(C)=C(C(=O)OC(C)C)C1c1cccc([N+](=O)[O-])c1", "note": "(centres unmarked) [nimodipine, isopropyl 2-methoxyethyl 1,4-dihydro-2,6-dimethyl-4-(m-nitrophenyl)-3,5-pyridinedicarboxylate]", "values": [
      {"measurement": "Concentration of nimodipine detected in the cerebrospinal fluid", "setting": "[1]", "value": "≤ 12.5", "unit": "ng/mL"},
      {"measurement": "Half-life equivalent to earlier elimination rates", "setting": "[2]", "value": "1 to 2", "unit": "h"}
    ]}
  ]
}
